In patent US4797284A, “Transdermal drug delivery system” (Merck & Co., Inc., priority 1986, dated 1989):

Tests used:
Format in all cases: physicochemical
[1] = crystallization of dissolved drug in unitary solid reservoir of dissolved and undissolved drug
Source text: Generally, the structure of a transdermal bandage or device consists of (a) a transdermal delivery system comprising an impermeable backing, a drug-containing reservoir, a rate-controlling membrane on the side to be ultimately proximate to the skin of the patient and (b) a means of attaching the system to the dermal surface. In the known systems, the reservoir, the source of supply for the drug, whether a single solid unit, a walled unit or a unit employing drug containing micro-capsules within the reservoir structure, contains the drug partly in particulate form and partly in solution i.e., contains drug in excess of its saturation solubility. During use, the drug in solution migrates to the permeable membrane surface, passes through the membrane and onto the skin for absorption. As the dissolved drug passes through the membrane some of the undissolved drug dissolves and there is, until the supply of undissolved drug is exhausted, a mixture of both dissolved and undissolved drug in the reservoir. The presence of dissolved and undissolved drug is considered necessary to provide for the near zero order rate of delivery, zero order being the rate of delivery which is constant or independent of time. […]

[2] = diffusion coefficient of drug in the membrane (Dm), side-by-side diffusion cell; settings: 7.5 percent ethylene vinyl acetate copolymer film (PE-75)
Method: The diffusion coefficient of drug in the membrane, Dm or Dm', is determined by mounting the membrane between two chambers of a side-by-sidediffusion cell. A determined amount of drug in solution (donor phase) is placed in one chamber and a receptor solvent in the other, into which the drug diffuses and in which it will remain substantially below its saturation solubility (receptor phase). The cells are stirred while maintained in a constant temperature bath, preferably at 32° C. The receptor phase is sampled from time to time and assayed for drug, and steady state flux through the membrane calculated. Km, the partition coefficient between the donor solution and membrane, is determined by equilibrating a known volume of donor solution at 32° C., then assaying the solution for change in drug concentration to determine partitioning between membrane and donor. The diffusion coefficient of the drug in the membrane is calculated from the steady state Fick's law equation, which for semi-permeable membrane is
Initially, Dr was determined for timolol in a commercially available acrylate film-forming material, a 30 percent weight/weight (w/w) vinyl acetate-acrylate copolymer in 53:11:36 ethyl acetate:toluene:ethanol solvent (Gelva® RA-737 multipolymer solution obtained from Monsanto) in the manner previously described. […]

[3] = diffusion coefficient of drug in the reservoir (Dr), release from drug-bearing film into stirred receptor solution; settings: 30 percent w/w vinyl acetate-acrylate copolymer in 53:11:36 ethyl acetate:toluene:ethanol (Gelva RA-737); timolol free base
Method: When a solid reservoir is employed, the diffusion coefficient of the drug in the reservoir, Dr, is determined by first dissolving the drug to be used in a solution of matrix-forming polymer at a concentration below the saturation solubility of the drug in the polymer solution, and then coating the solution and allowing the coating to dry or curing the coating to form a drug bearing film. The coating may be made on a releasable surface so that a free film is employed in the diffusion coefficient determination or may be made on an impermeable backing material in which case the film with backing is employed in making the determination. […] The receptor solution, which is maintained at a constant temperature, preferably 32° C., is sampled at appropriate intervals and quantitative determination of drug concentration made by HPLC (high pressure liquid chromatography) with UV detection or by other suitable means based on the physical-chemical characteristics of the drug. The value for Dr is then determined by a nonlinear regression fit of observed data to either the earlier time or the late time approximation as is appropriate for drug release from a continuous matrix containing only dissolved drug as discussed in Baker et al, "Controlled Release: Mechanisms and Rates" in Advances in Experimental Medicine and Biology, Vol 47, page 41, Eds. Tanquary et al, Plenum Press, N.Y., 1974. […]

Question: What does the source list for `CC(C)(C)NC[C@H](O)COc1nsnc1N1CCOCC1` [timolol]?
Answer: crystallization of dissolved drug after fabrication [1]: the dissolved drug often slowly crystallizes subsequent to fabrication; Dm (diffusion coefficient of drug in membrane) [2]: 2.85×10^-6 cm^2 /hour; Dr (diffusion coefficient of drug in reservoir) [3]: 1.58×10^-6 cm^2 /hour
